The nature of assay [1]: Inhibition of IL5 in mouse Y16 cells. In kind it is functional. The arrangement: concentration or dose not given beside the values.
Assay [2] can be described thus: Inhibition of IL5 in mouse Y16 cells […]. It is filed as functional, cell-based.

`O=C(/C=C/c1ccc(O)cc1)c1c(O)cccc1OCc1ccccc1`: the Inhibition – broadly, the drop in the measured response relative to a control, in per cent – in assay [1] came out at 78.8%. In addition, it took 25.3 µM to reach half-maximal inhibition in assay [2] (IC50).

For `O=C(O)c1cccc(/C=C/C(=O)c2c(O)cccc2OCC2CCCCC2)c1`, in assay [1], the Inhibition is 98.1%. The IC50 (commonly the concentration at which inhibition is half-maximal) in assay [2] is 14.1 µM.

As to `O=C(O)c1ccc(/C=C/C(=O)c2ccccc2OCc2ccccc2)cc1`, in assay [1], the Inhibition came out at 15%. For the same compound, the IC50 in assay [2] was greater than 50 µM.

Take `CC(=O)Nc1ccc(/C=C/C(=O)c2c(O)cccc2OCC2CCCCC2)cc1`: in assay [1], the Inhibition was found to be 99.2%. In addition, the IC50 in assay [2] was determined as 6.4 µM.

On to `O=Cc1ccc(/C=C/C(=O)c2c(O)cccc2OCC2CCCCC2)cc1`, for which the Inhibition in assay [1] is recorded as 99.8%. Further, the IC50 in assay [2] stood at 4.5 µM.

Take `NS(=O)(=O)c1ccc(/C=C/C(=O)c2c(O)cccc2OCc2ccccc2)cc1`: in assay [1], the Inhibition came to 99.5%. In assay [2], inhibition was half-maximal at 7 µM (IC50).

On to `O=C(O)c1ccccc1/C=C/C(=O)c1c(O)cccc1OCC1CCCCC1`, for which the Inhibition in assay [1] is recorded as -18.9%. For the same compound, in assay [2], the IC50 is greater than 50 µM.

As to `CCc1ccc(/C=C/C(=O)c2c(O)cccc2OCC2CCCCC2)cc1`, in assay [1], the Inhibition was 82.3%. Further, in assay [2], the IC50 was 27.9 µM.

As to `O=C(/C=C/c1ccc(O)cc1)c1ccc(OCC2CCCCC2)cc1O`, the Inhibition in assay [1] was determined as 59.7%. In addition, in assay [2], the 50% inhibitory concentration (IC50) was 21.4 µM.

For `O=C(O)c1ccc(/C=C/C(=O)c2c(O)cccc2OCc2ccccc2)cc1`, the Inhibition in assay [1] is recorded as 100%. This compound yielded a 50% inhibitory concentration (IC50) in assay [2] of 10.2 µM.

As to `O=C(/C=C/c1ccc(Cl)cc1)c1c(O)cccc1OCC1CCCCC1`, the Inhibition in assay [1] is 98.8%. This compound also came in with an IC50 in assay [2] of 7.1 µM.

As for `O=C(/C=C/c1ccc(O)cc1)c1c(O)cccc1OCC1CCCCC1`, the Inhibition in assay [1] was determined as 99%. The 50% inhibitory concentration (IC50) in assay [2] worked out at 12.6 µM.

Turning to `O=C(O)c1ccc(/C=C/C(=O)c2c(O)cccc2OCC2CCCCC2)cc1`, the Inhibition in assay [1] was 100%. Further, in assay [2], the concentration for half-maximal inhibition (IC50) stood at 9.4 µM.

Regarding `NS(=O)(=O)c1ccc(/C=C/C(=O)c2c(O)cccc2OCC2CCCCC2)cc1`, in assay [1], the Inhibition was 99.5%. The compound further showed a half-inhibitory concentration (IC50) in assay [2] of 1.8 µM.

As for `COCOc1ccc(/C=C/C(=O)c2c(O)cccc2OCC2CCCCC2)cc1`, in assay [1], the Inhibition came out at 13%. The compound further had a 50% inhibitory concentration (IC50) in assay [2] greater than 50 µM.

Regarding `Nc1ccc(/C=C/C(=O)c2c(O)cccc2OCC2CCCCC2)cc1`, in assay [1], the Inhibition came out at 16.4%. Moreover, in assay [2], the half-inhibitory concentration (IC50) was greater than 50 µM.

In the case of `O=C(O)c1ccc(/C=C/C(=O)c2ccc(OCC3CCCCC3)cc2O)cc1`, the Inhibition in assay [1] came out at 100%. Moreover, the IC50 in assay [2] was determined as 10.8 µM.

With `COC(=O)c1ccc(/C=C/C(=O)c2c(O)cccc2OCC2CCCCC2)cc1`, the Inhibition in assay [1] was determined as 98.6%. This compound showed an IC50 in assay [2] of 3.9 µM.

In the case of `O=C(/C=C/c1ccccc1)c1c(O)cccc1OCC1CCCCC1`, in assay [1], the Inhibition stood at 99.6%. This compound displayed an IC50 in assay [2] of 14.3 µM.

For the compound `O=C(/C=C/c1ccc(CO)cc1)c1c(O)cccc1OCC1CCCCC1`, in assay [1], the Inhibition is given as 99.3%. For the same compound, the IC50 in assay [2] was determined as 6.4 µM.

Consider `O=C(/C=C/c1ccc(O)cc1)c1ccc(OCc2ccccc2)cc1O`, for which the Inhibition in assay [1] is recorded as 77.6%. The same compound came in with a half-maximal inhibitory concentration (IC50) in assay [2] of 28.8 µM.

Regarding `COCOc1ccc(/C=C/C(=O)c2c(O)cccc2OCc2ccccc2)cc1`, the Inhibition in assay [1] came to 47.8%. The compound also gave a 50% inhibitory concentration (IC50) in assay [2] greater than 50 µM.

On to `O=C(O)c1ccc(CCC(=O)c2c(O)cccc2OCC2CCCCC2)cc1`, for which, in assay [1], the Inhibition is recorded as 15.6%. In assay [2], this compound had an IC50 greater than 50 µM.

As for `O=C(O)c1ccc(/C=C/C(=O)c2ccccc2O)cc1`, in assay [1], the Inhibition is reported as -18.7%. In assay [2], this compound showed an IC50 greater than 50 µM.

Take `O=C(O)c1ccc(/C=C/C(=O)c2ccc(OCc3ccccc3)cc2O)cc1`: the Inhibition in assay [1] stood at 100%. In assay [2], this compound registered a half-maximal inhibitory concentration (IC50) of 14.2 µM.

As to `O=C(/C=C/c1ccc(O)cc1)c1ccccc1O`, the Inhibition in assay [1] worked out at 50%. In assay [2], this compound showed a half-inhibitory concentration (IC50) of 48.2 µM.

The values are drawn from ChEMBL document CHEMBL1144517, “Structural requirement of chalcones for the inhibitory activity of interleukin-5” (Bioorg Med Chem, 2007).
